This passage reports ΔTm results from ChEMBL document CHEMBL1145498, “A systematic interaction map of validated kinase inhibitors with Ser/Thr kinases” (Proc Natl Acad Sci U S A, 2007).

Experiment [1] concerns the target Ribosomal protein S6 kinase alpha-3 (Homo sapiens) (UniProt P51812).
For experiment [2], the target named is T1, Myotonin-protein kinase (Homo sapiens) (UniProt Q09013).
T1 sequence (whole entry): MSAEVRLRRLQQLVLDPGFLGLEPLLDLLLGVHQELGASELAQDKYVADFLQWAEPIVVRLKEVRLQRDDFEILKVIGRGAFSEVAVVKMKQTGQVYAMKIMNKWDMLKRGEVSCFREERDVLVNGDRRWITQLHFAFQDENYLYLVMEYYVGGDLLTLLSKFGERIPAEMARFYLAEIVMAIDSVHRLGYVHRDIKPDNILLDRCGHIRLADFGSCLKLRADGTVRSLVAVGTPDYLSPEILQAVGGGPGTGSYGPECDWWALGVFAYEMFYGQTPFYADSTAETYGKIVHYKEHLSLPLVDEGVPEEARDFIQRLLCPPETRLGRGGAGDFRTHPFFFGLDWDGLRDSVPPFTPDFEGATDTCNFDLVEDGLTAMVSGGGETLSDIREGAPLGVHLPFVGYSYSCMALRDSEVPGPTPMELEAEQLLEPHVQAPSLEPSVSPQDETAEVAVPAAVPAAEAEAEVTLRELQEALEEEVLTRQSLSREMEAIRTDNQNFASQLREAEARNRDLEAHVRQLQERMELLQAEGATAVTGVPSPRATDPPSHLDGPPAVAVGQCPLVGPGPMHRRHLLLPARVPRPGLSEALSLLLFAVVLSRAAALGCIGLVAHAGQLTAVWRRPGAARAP

For experiment [3], the target named is Calcium/calmodulin-dependent protein kinase type 1G (Homo sapiens) (UniProt Q96NX5).
Sequence of Calcium/calmodulin-dependent protein kinase type 1G (Homo sapiens) (Q96NX5 whole entry): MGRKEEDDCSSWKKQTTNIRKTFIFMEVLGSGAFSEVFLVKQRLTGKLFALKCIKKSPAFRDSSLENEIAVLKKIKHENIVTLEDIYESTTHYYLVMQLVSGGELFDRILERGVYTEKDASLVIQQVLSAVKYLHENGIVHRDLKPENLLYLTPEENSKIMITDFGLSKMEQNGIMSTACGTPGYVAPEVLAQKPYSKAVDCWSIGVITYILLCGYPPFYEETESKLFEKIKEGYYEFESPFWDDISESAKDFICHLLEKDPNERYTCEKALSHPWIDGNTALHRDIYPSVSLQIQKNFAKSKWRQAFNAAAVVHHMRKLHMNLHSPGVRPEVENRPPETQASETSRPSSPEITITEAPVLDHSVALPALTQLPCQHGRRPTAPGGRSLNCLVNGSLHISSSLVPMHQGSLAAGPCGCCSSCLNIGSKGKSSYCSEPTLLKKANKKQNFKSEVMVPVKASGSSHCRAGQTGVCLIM
Experiment [4] concerns the target Serine/threonine-protein kinase PLK1 (Homo sapiens) (UniProt P53350).
In experiment [5] the target is Serine/threonine-protein kinase PAK 5 (Homo sapiens) (UniProt Q9P286).
Sequence of Serine/threonine-protein kinase PAK 5 (Homo sapiens) (Q9P286 whole entry, looked up): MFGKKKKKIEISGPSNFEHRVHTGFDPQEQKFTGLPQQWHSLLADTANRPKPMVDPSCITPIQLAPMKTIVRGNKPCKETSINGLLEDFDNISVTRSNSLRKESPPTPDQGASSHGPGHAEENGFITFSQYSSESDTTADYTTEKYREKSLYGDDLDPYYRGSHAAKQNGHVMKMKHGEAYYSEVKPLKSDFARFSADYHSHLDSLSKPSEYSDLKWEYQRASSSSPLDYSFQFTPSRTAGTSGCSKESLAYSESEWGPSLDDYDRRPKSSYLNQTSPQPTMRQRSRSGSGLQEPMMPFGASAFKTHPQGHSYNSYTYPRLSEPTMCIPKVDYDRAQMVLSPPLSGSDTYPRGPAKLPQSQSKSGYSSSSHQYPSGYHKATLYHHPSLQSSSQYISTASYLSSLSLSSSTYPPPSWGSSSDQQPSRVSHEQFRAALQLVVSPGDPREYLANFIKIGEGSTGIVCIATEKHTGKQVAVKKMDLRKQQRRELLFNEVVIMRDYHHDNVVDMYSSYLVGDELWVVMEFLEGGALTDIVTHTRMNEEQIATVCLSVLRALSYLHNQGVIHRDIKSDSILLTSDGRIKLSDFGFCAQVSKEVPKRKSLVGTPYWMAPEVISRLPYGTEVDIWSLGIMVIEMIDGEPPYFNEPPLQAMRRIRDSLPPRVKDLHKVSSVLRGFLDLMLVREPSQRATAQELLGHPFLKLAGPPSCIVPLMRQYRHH
Experiment [6] addresses Cyclin-dependent kinase 16 (Homo sapiens) (UniProt Q00536).
For experiment [7], the target named is T2, Lymphokine-activated killer T-cell-originated protein kinase (Homo sapiens) (UniProt Q96KB5).
T2 sequence (whole entry): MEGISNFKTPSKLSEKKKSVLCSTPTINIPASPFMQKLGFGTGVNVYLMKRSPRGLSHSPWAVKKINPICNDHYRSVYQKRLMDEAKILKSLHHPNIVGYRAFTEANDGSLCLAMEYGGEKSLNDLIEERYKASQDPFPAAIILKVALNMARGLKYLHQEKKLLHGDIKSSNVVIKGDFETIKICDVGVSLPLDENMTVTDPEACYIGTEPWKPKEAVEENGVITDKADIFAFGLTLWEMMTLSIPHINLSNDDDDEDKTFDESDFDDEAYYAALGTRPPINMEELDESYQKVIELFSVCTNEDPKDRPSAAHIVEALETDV

The target of experiment [8] is 5'-AMP-activated protein kinase catalytic subunit alpha-2 (Homo sapiens) (UniProt P54646).
Sequence of 5'-AMP-activated protein kinase catalytic subunit alpha-2 (Homo sapiens) (P54646 whole entry, looked up): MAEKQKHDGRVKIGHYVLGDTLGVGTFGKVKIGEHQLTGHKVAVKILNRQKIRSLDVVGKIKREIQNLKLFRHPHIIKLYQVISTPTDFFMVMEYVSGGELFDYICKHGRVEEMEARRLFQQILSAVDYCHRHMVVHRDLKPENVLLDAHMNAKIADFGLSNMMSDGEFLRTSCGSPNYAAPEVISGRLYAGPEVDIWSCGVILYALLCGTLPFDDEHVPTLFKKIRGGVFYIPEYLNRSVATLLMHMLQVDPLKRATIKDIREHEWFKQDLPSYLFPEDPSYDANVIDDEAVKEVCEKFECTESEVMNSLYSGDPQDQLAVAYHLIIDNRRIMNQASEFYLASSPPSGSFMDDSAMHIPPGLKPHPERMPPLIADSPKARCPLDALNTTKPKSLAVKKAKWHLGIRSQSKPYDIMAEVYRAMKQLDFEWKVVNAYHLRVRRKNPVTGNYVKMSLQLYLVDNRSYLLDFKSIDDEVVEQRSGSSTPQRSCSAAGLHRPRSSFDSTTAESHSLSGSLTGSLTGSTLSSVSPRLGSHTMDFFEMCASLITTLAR

SMILES strings stand for the structures.

Sequence of Serine/threonine-protein kinase PLK1 (Homo sapiens) (P53350 whole entry): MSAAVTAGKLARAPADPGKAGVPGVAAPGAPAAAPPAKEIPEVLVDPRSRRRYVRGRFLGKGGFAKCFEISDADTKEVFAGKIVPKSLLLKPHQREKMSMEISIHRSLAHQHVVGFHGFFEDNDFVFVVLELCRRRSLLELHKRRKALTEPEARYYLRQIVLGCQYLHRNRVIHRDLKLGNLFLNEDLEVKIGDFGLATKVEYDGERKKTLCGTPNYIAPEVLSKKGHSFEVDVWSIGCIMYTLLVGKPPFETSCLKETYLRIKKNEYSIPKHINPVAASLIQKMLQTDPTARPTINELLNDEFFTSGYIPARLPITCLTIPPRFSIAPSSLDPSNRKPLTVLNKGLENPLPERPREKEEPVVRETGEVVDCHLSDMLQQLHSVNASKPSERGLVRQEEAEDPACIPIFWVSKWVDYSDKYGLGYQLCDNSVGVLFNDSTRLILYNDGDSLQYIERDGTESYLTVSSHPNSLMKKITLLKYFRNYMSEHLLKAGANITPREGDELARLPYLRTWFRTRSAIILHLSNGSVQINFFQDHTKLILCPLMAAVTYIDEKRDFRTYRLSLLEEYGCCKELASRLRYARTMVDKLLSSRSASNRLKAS
Sequence of Cyclin-dependent kinase 16 (Homo sapiens) (Q00536 whole entry): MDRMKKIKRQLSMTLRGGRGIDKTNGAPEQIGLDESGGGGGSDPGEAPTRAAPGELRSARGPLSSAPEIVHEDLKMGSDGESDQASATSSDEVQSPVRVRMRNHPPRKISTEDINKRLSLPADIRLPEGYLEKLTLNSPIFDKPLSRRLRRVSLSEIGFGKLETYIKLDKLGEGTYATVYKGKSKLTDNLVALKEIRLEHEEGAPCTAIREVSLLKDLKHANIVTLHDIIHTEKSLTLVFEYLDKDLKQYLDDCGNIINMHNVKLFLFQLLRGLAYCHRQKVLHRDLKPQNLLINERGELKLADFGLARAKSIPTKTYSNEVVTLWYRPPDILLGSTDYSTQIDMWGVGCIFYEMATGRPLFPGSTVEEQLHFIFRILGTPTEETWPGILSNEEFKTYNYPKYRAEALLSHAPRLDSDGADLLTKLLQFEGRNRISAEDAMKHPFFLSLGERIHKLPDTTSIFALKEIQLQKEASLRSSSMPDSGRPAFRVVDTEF
Sequence of Ribosomal protein S6 kinase alpha-3 (Homo sapiens) (P51812 whole entry): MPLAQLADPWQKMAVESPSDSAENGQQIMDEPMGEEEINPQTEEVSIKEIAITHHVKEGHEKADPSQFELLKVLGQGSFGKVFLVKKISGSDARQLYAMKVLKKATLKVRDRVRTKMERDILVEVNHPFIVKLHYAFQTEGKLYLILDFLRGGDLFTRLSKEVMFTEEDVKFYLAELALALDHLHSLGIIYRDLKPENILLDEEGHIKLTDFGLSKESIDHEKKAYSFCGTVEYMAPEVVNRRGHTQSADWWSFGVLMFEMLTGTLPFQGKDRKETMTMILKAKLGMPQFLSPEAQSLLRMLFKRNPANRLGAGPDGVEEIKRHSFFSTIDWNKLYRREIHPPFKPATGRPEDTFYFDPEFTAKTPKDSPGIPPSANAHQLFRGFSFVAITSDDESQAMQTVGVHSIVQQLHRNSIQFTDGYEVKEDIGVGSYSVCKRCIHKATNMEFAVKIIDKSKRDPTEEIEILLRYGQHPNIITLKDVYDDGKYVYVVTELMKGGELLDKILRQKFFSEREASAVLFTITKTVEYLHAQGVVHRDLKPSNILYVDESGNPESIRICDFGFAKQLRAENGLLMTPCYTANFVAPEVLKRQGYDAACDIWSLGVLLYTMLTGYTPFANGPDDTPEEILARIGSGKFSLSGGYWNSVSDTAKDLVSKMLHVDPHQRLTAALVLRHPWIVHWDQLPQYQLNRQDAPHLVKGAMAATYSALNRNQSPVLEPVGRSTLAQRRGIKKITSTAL

A word on the ΔTm: it is the shift of the melting midpoint relative to a reference. Consider `Brc1c(Br)c(Br)c2[nH]nnc2c1Br` [TETRABROMOBENZOTRIAZOLE], for which the ΔTm in experiment [1] was 1.5 °C; in experiment [2], 1.1 °C; in experiment [3] it was -0.7 °C; in experiment [4], 2.3 °C; in experiment [5], 0.2 °C; in experiment [6], -0.5 °C. The ΔTm in experiment [7] is -0.3 °C; in experiment [8] it was 0.4 °C.
`C=CNC#N`: the ΔTm is 0 °C in experiment [1]; 1.3 °C in experiment [2]; 0.4 °C in experiment [3]; 0.1 °C in experiment [4]; 0.5 °C in experiment [5]; 0.4 °C in experiment [6]. Also, the values for the ΔTm in experiment [7] and in experiment [8] were -1.1 °C and -0.7 °C, respectively.
In the case of `N#CC(C#N)=Cc1ccc(O)c(O)c1` [TYRPHOSTIN 23], the ΔTm was 0.2 °C in experiment [1]; 0 °C in experiment [2]; 0 °C in experiment [3]; 0.4 °C in experiment [4]; 0.5 °C in experiment [5]; -0.7 °C in experiment [6]. Moreover, the ΔTm in experiment [7] is 0.4 °C; in experiment [8], -0.1 °C.
Regarding `CCOc1cc2ncnc(Nc3cccc(Br)c3)c2cc1OCC`, the shift in melting temperature (ΔTm) is 2.5 °C in experiment [1]; 0.5 °C in experiment [2]; 0.4 °C in experiment [3]; 0.2 °C in experiment [4]; 0.4 °C in experiment [5]; -1 °C in experiment [6]. In addition, the thermal shift (ΔTm) in experiment [7] and in experiment [8] was 0.1 °C in each case.
As for `NC(=O)c1ccc2[nH]c(-c3ccc(Oc4ccc(Cl)cc4)cc3)nc2c1`, the shift in melting temperature (ΔTm) is 0.7 °C in experiment [1]; 1.3 °C in experiment [2]; 2.6 °C in experiment [3]; 4.4 °C in experiment [4]; -0.2 °C in experiment [5]; -1.4 °C in experiment [6]. For the same compound, the shift in melting temperature (ΔTm) in experiment [7] is 0.9 °C; in experiment [8] it was -0.9 °C.
On to `O=C1NC(=O)c2c1c1c3ccccc3n3c1c1c2c2ccccc2n1C1CCC3O1`, for which the ΔTm is 0 °C in experiment [1]; 6.8 °C in experiment [2]; -0.2 °C in experiment [3]; 4 °C in experiment [4]; 2.4 °C in experiment [5]; 0.3 °C in experiment [6]. Also, the ΔTm is -0.3 °C in experiment [7] and 3.9 °C in experiment [8].
Regarding `O=C1c2ccccc2-[n+]2ccc3c([nH]c4ccccc43)c21` [FASCAPLYSIN CHLORIDE], the ΔTm in experiment [1] is -0.1 °C; in experiment [2], -0.9 °C; in experiment [3], -3.5 °C; in experiment [4], 0.8 °C; in experiment [5], 0.3 °C; in experiment [6], -0.6 °C. In addition, the thermal shift (ΔTm) in experiment [7] amounted to 0.6 °C; in experiment [8], 0 °C.
For `CSc1nc(-c2ccc(F)cc2)c(-c2ccnc(NC(C)c3ccccc3)c2)[nH]1` (racemic), the ΔTm in experiment [1] amounted to 0.4 °C; in experiment [2], 1.3 °C; in experiment [3], 1.9 °C; in experiment [4], 0.9 °C; in experiment [5] it was 0 °C; in experiment [6], 0.4 °C. In addition, the figures for the shift in melting temperature (ΔTm) in experiment [7] and in experiment [8] were 0.4 °C and -0.4 °C, respectively.
Turning to `COc1cccc(-c2cc(=O)c3ccccc3o2)c1N`, the shift in melting temperature (ΔTm) in experiment [1] was -0.1 °C; in experiment [2] it was -0.2 °C; in experiment [3], -0.2 °C; in experiment [4] it was 0.3 °C; in experiment [5], -0.2 °C; in experiment [6], -0.2 °C. The ΔTm in experiment [7] was 1.2 °C; in experiment [8], -0.5 °C.
`COc1ccc(S(=O)(=O)N(CCO)c2ccccc2CN(C)C/C=C/c2ccc(Cl)cc2)cc1`: the ΔTm is -0.9 °C in experiment [1]; -0.7 °C in experiment [2]; 0.3 °C in experiment [3]; -0.2 °C in experiment [4]; -0.4 °C in experiment [5]; -0.6 °C in experiment [6]. Moreover, the thermal shift (ΔTm) was -0.1 °C in experiment [7] and -1 °C in experiment [8].
With `Cc1c2ccncc2c(C)c2c1[nH]c1ccccc12` [ELLIPTECINE], the ΔTm in experiment [1] was 3.7 °C; in experiment [2], 3.5 °C; in experiment [3], 0.3 °C; in experiment [4], 3.9 °C; in experiment [5], 0.9 °C; in experiment [6], -0.4 °C. Moreover, the ΔTm in experiment [7] amounted to 0.3 °C; in experiment [8], 1.8 °C.
On to `C[S+]([O-])c1ccc(CSc2nc(-c3ccc(F)cc3)c(-c3ccncc3)[nH]2)cc1` (configuration not stated), for which the ΔTm is 0.1 °C in experiment [1]; 0.5 °C in experiment [2]; 0 °C in experiment [3]; -0.2 °C in experiment [4]; 0.4 °C in experiment [5]; -0.7 °C in experiment [6]. Also, the ΔTm in experiment [7] is 0.5 °C; in experiment [8] it was -0.3 °C.
For the compound `O=C1NC(=O)C(c2cn(CCCn3ccnc3)c3ccccc23)=C1Nc1ccccc1`, the ΔTm in experiment [1] worked out at 0.5 °C; in experiment [2] it was 4.5 °C; in experiment [3], 1 °C; in experiment [4] it was 1.2 °C; in experiment [5], 0.1 °C; in experiment [6], 0.6 °C. In addition, the shift in melting temperature (ΔTm) was 0.8 °C in experiment [7] and 0.4 °C in experiment [8].
In the case of `CN(C)CCCn1cc(C2=C(c3c[nH]c4ccccc34)C(=O)NC2=O)c2ccccc21` [GF-109203], the ΔTm in experiment [1] came out at 7.8 °C; in experiment [2], 3.9 °C; in experiment [3], 0.6 °C; in experiment [4] it was 1 °C; in experiment [5], 1 °C; in experiment [6] it was 3 °C. The ΔTm in experiment [7] was found to be 0.2 °C; in experiment [8] it was 2.6 °C.
On to `CC(C)(C)n1nc(-c2ccc(Cl)cc2)c2c(N)ncnc21`, for which the thermal shift (ΔTm) was 2.1 °C in experiment [1]; 0.6 °C in experiment [2]; 0 °C in experiment [3]; 0.9 °C in experiment [4]; 0.7 °C in experiment [5]; -0.5 °C in experiment [6]. Besides, the ΔTm in experiment [7] and in experiment [8] was 0.7 °C each time.
Regarding `CCN1/C(=C/C(C)=O)Sc2ccc(OC)cc21`, the ΔTm was 0.4 °C in experiment [1]; 2.5 °C in experiment [2]; -0.5 °C in experiment [3]; 0.3 °C in experiment [4]; 0 °C in experiment [5]; -0.5 °C in experiment [6]. Further, the shift in melting temperature (ΔTm) in experiment [7] is 1.1 °C; in experiment [8], -0.1 °C.
For the compound `Cc1nc2sccn2c(=O)c1CCN1CCC(=C(c2ccccc2)c2ccc(F)cc2)CC1`, the shift in melting temperature (ΔTm) in experiment [1] was 2.8 °C; in experiment [2], 0.1 °C; in experiment [3], 0.4 °C; in experiment [4] it was 0.6 °C; in experiment [5] it was 1 °C; in experiment [6] it was -0.5 °C. Moreover, the ΔTm in experiment [7] is -0.5 °C; in experiment [8] it was -0.1 °C.
Turning to `COc1cc2ncnc(Nc3ccc(NC(=O)c4ccccc4)cc3)c2cc1OC` [ANILINOQUINAZOLINE1], the ΔTm in experiment [1] is 5.5 °C; in experiment [2], 1.1 °C; in experiment [3], 2 °C; in experiment [4], -0.5 °C; in experiment [5], -0.2 °C; in experiment [6] it was -1.4 °C. The shift in melting temperature (ΔTm) amounted to 0.3 °C in experiment [7] and 0.8 °C in experiment [8].
For the compound `CCOC(=O)c1c(C)[nH]c(/C=C2\C(=O)Nc3ccccc32)c1C`, the ΔTm in experiment [1] was 3 °C; in experiment [2] it was 0.5 °C; in experiment [3], -1.3 °C; in experiment [4] it was -0.6 °C; in experiment [5] it was -0.5 °C; in experiment [6] it was -0.2 °C. In addition, the values for the shift in melting temperature (ΔTm) in experiment [7] and in experiment [8] were 0.3 °C and 0.5 °C, respectively.
